Test results published in ChEMBL document CHEMBL4765295, “Synthesis, pharmacological profile and 2D-QSAR studies of curcumin-amino acid conjugates as potential drug candidates” (Eur J Med Chem, 2020).
Several values for one entry are separate records, joined by “and”; a condition that tells them apart may be missing. Equal values may be shown once.

What was measured:
[1] = test system: Rattus norvegicus; experiment: Antiinflammatory activity in Wistar rat model of carrageenan-induced paw edema assessed as reduction in thickness of paw edema at 10 mg/kg, ip pretreated for 1 hr followed by carrageenan challenge and measured after 1 hr (reference value: 2.41 +/-0.05 mm); assay type: functional; details: time 1 hr after carrageenan
[2] = test system: Rattus norvegicus; experiment: Anti-inflammatory activity in Wistar rat assessed as inhibition of carrageenan-induced paw edema at 10 mg/kg, ip pretreated for 1 hr followed by carrageenan challenge and measured after 3 hr relative to control (reference value: 0.00 +/-0.1 %); assay type: functional; details: time 4 hrs
[3] = test system: Peritoneal macrophage; experiment: Antiinflammatory activity in […] mouse Peritoneal macrophages assessed as reduction in LPS-induced NO production by measuring reduction in stimulation index at 10 uM preincubated for 1 hr followed by LPS stimulation measured after 24 hrs by Griess method (reference value: 27.31 +/- 2.56 uM); assay type: functional; details: time 25 hrs
[4] = test system: Rattus norvegicus; experiment: Antiinflammatory activity in Wistar rat model of carrageenan-induced paw edema assessed as reduction in thickness of paw edema at 10 mg/kg, ip pretreated for 1 hr followed by carrageenan challenge and measured after 3 hrs (reference value: 1.79 +/-0.07 mm); assay type: functional; details: time 4 hrs
[5] = test system: Rattus norvegicus; experiment: Antiinflammatory activity in Wistar rat model of carrageenan-induced paw edema assessed as reduction in thickness of paw edema at 10 mg/kg, ip pretreated for 1 hr followed by carrageenan challenge and measured after 24 hrs (reference value: 0.83 +/-0.08 mm); assay type: functional; details: time 25 hrs
[6] = test system: Rattus norvegicus; experiment: Antiinflammatory activity in Wistar rat model of carrageenan-induced paw edema assessed as reduction in thickness of paw edema at 10 mg/kg, ip pretreated for 1 hr followed by carrageenan challenge and measured after 4 hrs (reference value: 1.40 +/-0.10 mm); assay type: functional; details: time 5 hrs
[7] = test system: Streptococcus pyogenes; experiment: Antibacterial activity against Streptococcus pyogenes ATCC 19615 incubated for 18 hrs by agar dilution method; assay type: functional
[8] = test system: Splenocyte; experiment: Immunomodulatory activity in Swiss albino mouse splenocytes assessed as cell viability at 10 uM by measuring stimulation index incubated for 72 hrs in presence of mitogenic stimulus phytohaemagglutinin by MTT assay (reference value: 1.00 +/- 0.24); assay type: functional
[9] = test system: Rattus norvegicus; experiment: Anti-inflammatory activity in Wistar rat assessed as inhibition of carrageenan-induced paw edema at 10 mg/kg, ip pretreated for 1 hr followed by carrageenan challenge and measured after 24 hr relative to control (reference value: 0.00 +/-0.3 %); assay type: functional; details: time 25 hrs
[10] = test system: Rattus norvegicus; experiment: Anti-inflammatory activity in Wistar rat assessed as inhibition of carrageenan-induced paw edema at 10 mg/kg, ip pretreated for 1 hr followed by carrageenan challenge and measured after 4 hr relative to indomethacin; assay type: functional; details: time 5 hrs
[11] = test system: Rattus norvegicus; experiment: Antiinflammatory activity in Wistar rat model of carrageenan-induced paw edema assessed as reduction in thickness of paw edema at 10 mg/kg, ip pretreated for 1 hr followed by carrageenan challenge and measured after 2 hrs (reference value: 2.06 +/-0.09 mm); assay type: functional; details: time 3 hrs
[12] = test system: Candida albicans; experiment: Antifungal activity against Candida albicans incubated for 18 to 24 hrs by CLSI method; assay type: functional; details: time 18-24 hrs
[13] = test system: Pseudomonas aeruginosa; experiment: Antibacterial activity against Pseudomonas aeruginosa ATCC 27853 incubated for 18 hrs by agar dilution assay; assay type: functional
[14] = test system: Rattus norvegicus; experiment: Anti-inflammatory activity in Wistar rat assessed as inhibition of carrageenan-induced paw edema at 10 mg/kg, ip pretreated for 1 hr followed by carrageenan challenge and measured after 1 hr relative to control (reference value: 0.00 +/-0.02 %); assay type: functional; details: time 2 hrs
[15] = test system: Rattus norvegicus; experiment: Anti-inflammatory activity in Wistar rat assessed as inhibition of carrageenan-induced paw edema at 10 mg/kg, ip pretreated for 1 hr followed by carrageenan challenge and measured after 2 hr relative to control (reference value: 0.00 +/-0.03 %); assay type: functional; details: time 3 hrs
[16] = test system: Salmonella typhimurium; experiment: Antibacterial activity against Salmonella typhimurium ATCC 19430 incubated for 18 hrs by agar dilution assay; assay type: functional, Salmonella enterica subsp. enterica serovar Typhimurium; details: Salmonella enterica
[17] = test system: Peritoneal macrophage; experiment: Antiinflammatory activity in […] mouse Peritoneal macrophages assessed as inhibition of LPS-induced NO production at 10 uM preincubated for 1 hr followed by LPS stimulation measured after 24 hrs by Griess method relative to control (reference value: 0.0 %); assay type: functional; parameters: scale not given: the % may be the effect or the level left; details: time 25 hrs
[18] = test system: Rattus norvegicus; experiment: Anti-inflammatory activity in Wistar rat assessed as inhibition of carrageenan-induced paw edema at 10 mg/kg, ip pretreated for 1 hr followed by carrageenan challenge and measured after 4 hr relative to control (reference value: 0.00 +/-0.4 %); assay type: functional; details: time 5 hrs
[19] = test system: Staphylococcus aureus; experiment: Antibacterial activity against Staphylococcus aureus ATCC 25923 incubated for 18 hrs by agar dilution method; assay type: functional
[20] = test system: Splenocyte; experiment: Immunomodulatory activity in Swiss albino mouse splenocytes assessed as cell viability at 10 uM by measuring inhibition of stimulation index incubated for 72 hrs in presence of mitogenic stimulus phytohaemagglutinin by MTT assay relative to indomethacin; assay type: functional; details: read-out: Activity

Row | MIC [7] | MIC [12] | MIC [13] | MIC [16] | MIC [19] | Compound | Activity [1] | inhibition in vivo at 10 mg/kg [2] | Activity [3] | Activity [4] | Activity [5] | Activity [6] | Activity_index [8] | inhibition in vivo at 10 mg/kg [9] | inhibition in vivo at 10 mg/kg [10] | Activity [11] | inhibition in vivo at 10 mg/kg [14] | inhibition in vivo at 10 mg/kg [15] | Activity [17] | inhibition in vivo at 10 mg/kg [18] | viability at 10 µM [20]
1 | 0.5 µg/mL and 0.599 µM | 1 µg/mL and 1.2 µM | 0.25 µg/mL and 0.299 µM | 0.125 µg/mL and 0.15 µM | 0.125 µg/mL and 0.15 µM | COc1cc(/C=C/C(=O)/C=C(O)/C=C/c2ccc(OC(=O)[C@@H](NC(=O)OCc3ccccc3)C(C)C)c(OC)c2)ccc1OC(=O)[C@@H](NC(=O)OCc1ccccc1)C(C)C | 1.17 mm | 19% | 25.76 µM | 1.45 mm | 0.81 mm | 1.23 mm | 2.87 | 2% | 14% | 1.65 mm | 51% | 20% | 5.68% | 12% | 42.1%
2 | 0.125 µg/mL and 0.145 µM | 0.5 µg/mL and 0.579 µM | 0.125 µg/mL and 0.145 µM | 0.25 µg/mL and 0.29 µM | 0.125 µg/mL and 0.145 µM | COc1cc(/C=C/C(=O)/C=C(O)/C=C/c2ccc(OC(=O)[C@H](CC(C)C)NC(=O)OCc3ccccc3)c(OC)c2)ccc1OC(=O)[C@H](CC(C)C)NC(=O)OCc1ccccc1 | 1.59 mm | 10% | 26.06 µM | 1.61 mm | 0.82 mm | 1.25 mm | 2.83 | 1% | 13% | 1.85 mm | 34% | 10% | 4.57% | 11% | 42.8%
3 | 0.5 µg/mL and 0.496 µM | 1 µg/mL and 0.991 µM | 0.25 µg/mL and 0.248 µM | 0.125 µg/mL and 0.124 µM | 0.125 µg/mL and 0.124 µM | COc1cc(/C=C/C(=O)/C=C(O)/C=C/c2ccc(OC(=O)[C@H](Cc3c[nH]c4ccccc34)NC(=O)OCc3ccccc3)c(OC)c2)ccc1OC(=O)[C@H](Cc1c[nH]c2ccccc12)NC(=O)OCc1ccccc1 | 1.52 mm | 24% | 24.28 µM | 1.36 mm | 0.82 mm | 1.23 mm | 2.6 | 1% | 14% | 1.48 mm | 37% | 28% | 11.08% | 12% | 46.5%
4 | 0.25 µg/mL and 0.352 µM | 1 µg/mL and 1.41 µM | 1 µg/mL and 1.41 µM | 0.125 µg/mL and 0.176 µM | 0.125 µg/mL and 0.176 µM | COc1cc(/C=C/C(=O)/C=C(O)/C=C/c2ccc(OC(=O)[C@H](C)NC(=O)OC(C)(C)C)c(OC)c2)ccc1OC(=O)[C@H](C)NC(=O)OC(C)(C)C | 2.26 mm | 20% | 21.3 µM | 1.44 mm | 0.79 mm | 1.04 mm | 2.71 | 5% | 32% | 1.84 mm | 6% | 11% | 22.02% | 28% | 44.6%
